Data taken from PubChem BioAssay AID1963875 (Molecular Pharmacology Branch, DTP, NCI, 2024).

Tested on: KRAS-mutant PDC complex spheroid viability
Assay: Anticancer human tumor 186277-243-T-J2-PDC patient-derived colon adenocarcinoma cell line growth inhibition [KRAS2]
Settings: for IC50: curve of first compound; for viability, T/C: stronger effect = lower value
Method in brief: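 KRAS-mutant tumor cells were grown as spheroids with HUVEC endothelial cells and human MSCs as stroma. Targeted agents were tested alone and with KRAS pathway inhibitors. Doses started at or near clinical Cmax, or 10 microM, descending half-log.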

[1] = second compound 0.1 µM, first compound 0.0316 µM
[2] = second compound 0.1 µM, first compound 0.1 µM
[3] = second compound 0.1 µM, first compound 0.316 µM
[4] = second compound 0.1 µM, first compound 1 µM
[5] = second compound 0.1 µM, first compound 3.16 µM
[6] = second compound 0.1 µM, first compound 10 µM
[7] = second compound 0.316 µM, first compound 0.0316 µM
[8] = second compound 0.316 µM, first compound 0.1 µM
[9] = second compound 0.316 µM, first compound 0.316 µM
[10] = second compound 0.316 µM, first compound 1 µM
[11] = second compound 0.316 µM, first compound 3.16 µM
[12] = second compound 0.316 µM, first compound 10 µM
[13] = second compound 1 µM, first compound 0.0316 µM
[14] = second compound 1 µM, first compound 0.1 µM
[15] = second compound 1 µM, first compound 0.316 µM
[16] = second compound 1 µM, first compound 1 µM
[17] = second compound 1 µM, first compound 3.16 µM
[18] = second compound 1 µM, first compound 10 µM
[19] = second compound 3.16 µM, first compound 0.0316 µM
[20] = second compound 3.16 µM, first compound 0.1 µM
[21] = second compound 3.16 µM, first compound 0.316 µM
[22] = second compound 3.16 µM, first compound 1 µM
[23] = second compound 3.16 µM, first compound 3.16 µM
[24] = second compound 3.16 µM, first compound 10 µM
[25] = second compound 10 µM, first compound 0.0316 µM
[26] = second compound 10 µM, first compound 0.1 µM
[27] = second compound 10 µM, first compound 0.316 µM
[28] = second compound 10 µM, first compound 1 µM
[29] = second compound 10 µM, first compound 3.16 µM
[30] = second compound 10 µM, first compound 10 µM
[31] = second compound 0.1 µM, first compound 0.00316 µM
[32] = second compound 0.1 µM, first compound 0.01 µM
[33] = second compound 0.316 µM, first compound 0.00316 µM
[34] = second compound 0.316 µM, first compound 0.01 µM
[35] = second compound 1 µM, first compound 0.00316 µM
[36] = second compound 1 µM, first compound 0.01 µM
[37] = second compound 3.16 µM, first compound 0.00316 µM
[38] = second compound 3.16 µM, first compound 0.01 µM
[39] = second compound 10 µM, first compound 0.00316 µM
[40] = second compound 10 µM, first compound 0.01 µM
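For viability, T/C in this document: viability read after seven days of compound exposure; 100% = DMSO vehicle-treated spheroids so lower means less viable.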

Row | Structure (SMILES) | IC50 (second compound 0.1 µM) | IC50 (second compound 0.316 µM) | IC50 (second compound 1 µM) | IC50 (second compound 3.16 µM) | IC50 (second compound 10 µM) | viability, T/C [1] | viability, T/C [2] | viability, T/C [3] | viability, T/C [4] | viability, T/C [7] | viability, T/C [8] | viability, T/C [9] | viability, T/C [10] | viability, T/C [13] | viability, T/C [14] | viability, T/C [15] | viability, T/C [19] | viability, T/C [20] | viability, T/C [25] | viability, T/C [26] | further results
1 | CC(C)NCC(C(=O)N1CCN(c2ncnc3c2C(C)CC3O)CC1)c1ccc(Cl)cc1 (stereo not given) + COc1cc2nc(C)nc(NC(C)c3cc(N)cc(C(F)(F)F)c3)c2cc1OC1CCOC1 | 414 nM | 305 nM | 359 nM | 571 nM | 36.4 nM | 103% | 83.4% | 54.8% | 34.8% | 100% | 85.4% | 47.2% | 21.6% | 98.2% | 87.8% | 50.2% | 107% | 90.4% | 52.4% | 34.7% | viability, T/C [5]: 3.87%; viability, T/C [6]: 7.18%; viability, T/C [11]: 1.85%; viability, T/C [12]: 7.05%; viability, T/C [16]: 24.6%; viability, T/C [17]: 1.87%; viability, T/C [18]: 0.23%; viability, T/C [21]: 96.5%; viability, T/C [22]: 5.81%; viability, T/C [23]: 0.99%; viability, T/C [24]: 8.22%; viability, T/C [27]: 18.7%; viability, T/C [28]: 0.82%; viability, T/C [29]: 0.18%; viability, T/C [30]: 0.39%
2 | CCN1CCN(Cc2ccc(Nc3ncc(F)c(-c4cc(F)c5nc(C)n(C(C)C)c5c4)n3)nc2)CC1 + COc1cc2nc(C)nc(NC(C)c3cc(N)cc(C(F)(F)F)c3)c2cc1OC1CCOC1 | > 1000 nM | > 1000 nM | > 1000 nM | 714 nM | 64 nM | 118% | 165% | 173% | 69.4% | 130% | 163% | 146% | 58% | 115% | 157% | 123% | 138% | 157% | 100% | 18.2% | viability, T/C [31]: 97.9%; viability, T/C [32]: 93.2%; viability, T/C [33]: 101%; viability, T/C [34]: 93.6%; viability, T/C [35]: 96%; viability, T/C [36]: 109%; viability, T/C [16]: 50.9%; viability, T/C [37]: 91.9%; viability, T/C [38]: 98.1%; viability, T/C [21]: 108%; viability, T/C [22]: 26.4%; viability, T/C [39]: 103%; viability, T/C [40]: 104%; viability, T/C [27]: 4.89%; viability, T/C [28]: 0.61%
3 | CCNC(=O)CC1N=C(c2ccc(Cl)cc2)c2cc(OC)ccc2-n2c(C)nnc21 (stereo not given) + COc1cc2nc(C)nc(NC(C)c3cc(N)cc(C(F)(F)F)c3)c2cc1OC1CCOC1 | 1910 nM | 1310 nM | 1160 nM | 751 nM | 229 nM | 100% | 103% | 139% | 84.7% | 102% | 89.2% | 124% | 57.1% | 93.4% | 108% | 123% | 84.8% | 110% | 90.5% | 90.9% | viability, T/C [5]: 26.7%; viability, T/C [6]: 18.8%; viability, T/C [11]: 28.9%; viability, T/C [12]: 24.5%; viability, T/C [16]: 55%; viability, T/C [17]: 24.3%; viability, T/C [18]: 6.44%; viability, T/C [21]: 107%; viability, T/C [22]: 33.3%; viability, T/C [23]: 13.5%; viability, T/C [24]: 14.2%; viability, T/C [27]: 34.2%; viability, T/C [28]: 2.69%; viability, T/C [29]: 0.68%; viability, T/C [30]: 0.42%
4 | Cn1ncnc1[C@H]1c2n[nH]c(=O)c3cc(F)cc(c23)N[C@@H]1c1ccc(F)cc1 + COc1cc2nc(C)nc(NC(C)c3cc(N)cc(C(F)(F)F)c3)c2cc1OC1CCOC1 | > 100 nM | > 100 nM | > 100 nM | > 100 nM | 9.92 nM | 103% | 79.1% |  |  | 90.5% | 74.5% |  |  | 83.4% | 64.5% |  | 74.7% | 63.9% | 42.2% | 25% | viability, T/C (second compound 0.1 µM, first compound 0.000316 µM): 98.7%; viability, T/C (second compound 0.1 µM, first compound 0.001 µM): 107%; viability, T/C [31]: 106%; viability, T/C [32]: 109%; viability, T/C (second compound 0.316 µM, first compound 0.000316 µM): 108%; viability, T/C (second compound 0.316 µM, first compound 0.001 µM): 120%; viability, T/C [33]: 105%; viability, T/C [34]: 89.4%; viability, T/C (second compound 1 µM, first compound 0.000316 µM): 109%; viability, T/C (second compound 1 µM, first compound 0.001 µM): 112%; viability, T/C [35]: 104%; viability, T/C [36]: 99.2%; viability, T/C (second compound 3.16 µM, first compound 0.000316 µM): 81.8%; viability, T/C (second compound 3.16 µM, first compound 0.001 µM): 116%; viability, T/C [37]: 108%; viability, T/C [38]: 86.3%; viability, T/C (second compound 10 µM, first compound 0.000316 µM): 79.2%; viability, T/C (second compound 10 µM, first compound 0.001 µM): 68.5%; viability, T/C [39]: 63.6%; viability, T/C [40]: 45.5%
